Patent publication US12275731B2, “Azaindole inhibitors of wild-type and mutant forms of LRRK2” (DANA-FARBER CANCER INSTITUTE, INC., priority 2018, dated 2025)

Columns and labels:
Assay in all cases: KinomeScan profiling
Format in all cases: binding
VEGFR2 = VEGFR2 (Homo sapiens, UniProt P35968); details: VEGFR2, 1 μM; read-out: % control
Procedure, shortened: (§1)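 1 μM cpd in DMSO; 468-kinase panel; readout RLU. % ctrl = (cpd − pos ctrl)/(neg ctrl − pos ctrl) ×100. Pos ctrl = 0%, DMSO = 100%. Hit cut-off <35%.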

MAP4K2 = target: T1, MAP4K2 (Homo sapiens, UniProt Q12851); details: MAP4K2, 1 μM; read-out: % control
T1 sequence (Q12851 1-820): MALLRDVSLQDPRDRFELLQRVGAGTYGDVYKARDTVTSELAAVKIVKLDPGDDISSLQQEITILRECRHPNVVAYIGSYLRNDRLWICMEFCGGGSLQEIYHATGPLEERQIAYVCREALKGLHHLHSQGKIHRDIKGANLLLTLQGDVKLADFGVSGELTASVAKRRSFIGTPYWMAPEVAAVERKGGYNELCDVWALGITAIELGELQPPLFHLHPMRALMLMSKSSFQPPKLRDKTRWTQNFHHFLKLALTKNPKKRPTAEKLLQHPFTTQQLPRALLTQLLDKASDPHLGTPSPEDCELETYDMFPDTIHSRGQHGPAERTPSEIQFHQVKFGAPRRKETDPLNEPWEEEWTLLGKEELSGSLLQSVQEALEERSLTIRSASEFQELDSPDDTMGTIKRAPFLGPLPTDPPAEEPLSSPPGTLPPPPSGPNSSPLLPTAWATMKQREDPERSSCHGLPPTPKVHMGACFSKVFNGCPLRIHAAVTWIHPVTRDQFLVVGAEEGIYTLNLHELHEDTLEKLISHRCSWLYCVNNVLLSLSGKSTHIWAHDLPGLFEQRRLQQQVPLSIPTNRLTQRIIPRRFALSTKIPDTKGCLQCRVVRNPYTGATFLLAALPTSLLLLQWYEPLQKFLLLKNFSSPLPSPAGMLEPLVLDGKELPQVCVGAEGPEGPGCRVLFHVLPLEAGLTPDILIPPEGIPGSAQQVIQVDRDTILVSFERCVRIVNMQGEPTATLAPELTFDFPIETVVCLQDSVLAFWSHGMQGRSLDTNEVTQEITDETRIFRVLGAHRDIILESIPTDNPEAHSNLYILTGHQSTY
Procedure, shortened: as §1

MLK2 = MLK2 (Homo sapiens, UniProt Q02779); details: MLK2, 1 μM; read-out: % control
Sequence of MLK2 (Q02779 whole entry): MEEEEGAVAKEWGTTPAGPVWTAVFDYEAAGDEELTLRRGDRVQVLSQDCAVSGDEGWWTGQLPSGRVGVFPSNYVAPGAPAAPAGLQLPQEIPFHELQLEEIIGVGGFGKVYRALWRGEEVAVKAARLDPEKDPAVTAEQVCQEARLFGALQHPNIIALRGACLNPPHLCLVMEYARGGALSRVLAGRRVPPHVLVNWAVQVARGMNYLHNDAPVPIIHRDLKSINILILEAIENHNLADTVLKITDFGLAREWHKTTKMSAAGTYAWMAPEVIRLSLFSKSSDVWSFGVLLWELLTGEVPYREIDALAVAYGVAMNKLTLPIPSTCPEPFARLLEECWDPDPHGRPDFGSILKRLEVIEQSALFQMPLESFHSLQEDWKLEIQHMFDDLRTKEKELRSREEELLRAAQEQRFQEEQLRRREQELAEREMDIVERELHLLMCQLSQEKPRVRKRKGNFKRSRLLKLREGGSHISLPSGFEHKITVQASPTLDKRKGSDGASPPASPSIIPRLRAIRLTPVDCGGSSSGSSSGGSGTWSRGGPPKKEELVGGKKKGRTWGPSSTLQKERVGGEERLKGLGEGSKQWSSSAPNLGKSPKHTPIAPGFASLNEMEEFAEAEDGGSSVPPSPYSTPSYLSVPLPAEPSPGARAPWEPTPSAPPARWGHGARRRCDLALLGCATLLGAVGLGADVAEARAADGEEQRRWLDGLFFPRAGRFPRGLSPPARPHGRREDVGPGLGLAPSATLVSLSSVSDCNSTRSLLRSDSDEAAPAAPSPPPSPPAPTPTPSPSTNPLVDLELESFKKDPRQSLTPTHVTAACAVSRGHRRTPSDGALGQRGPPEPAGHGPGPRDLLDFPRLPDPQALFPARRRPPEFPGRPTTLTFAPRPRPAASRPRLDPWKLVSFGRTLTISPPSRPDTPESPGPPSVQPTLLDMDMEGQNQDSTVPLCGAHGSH
Procedure, shortened: as §1

MEK5 = target: T2, MEK5 (Homo sapiens, UniProt Q13163); details: MEK5, 1 μM; read-out: % control
T2 sequence (Q13163 1-448): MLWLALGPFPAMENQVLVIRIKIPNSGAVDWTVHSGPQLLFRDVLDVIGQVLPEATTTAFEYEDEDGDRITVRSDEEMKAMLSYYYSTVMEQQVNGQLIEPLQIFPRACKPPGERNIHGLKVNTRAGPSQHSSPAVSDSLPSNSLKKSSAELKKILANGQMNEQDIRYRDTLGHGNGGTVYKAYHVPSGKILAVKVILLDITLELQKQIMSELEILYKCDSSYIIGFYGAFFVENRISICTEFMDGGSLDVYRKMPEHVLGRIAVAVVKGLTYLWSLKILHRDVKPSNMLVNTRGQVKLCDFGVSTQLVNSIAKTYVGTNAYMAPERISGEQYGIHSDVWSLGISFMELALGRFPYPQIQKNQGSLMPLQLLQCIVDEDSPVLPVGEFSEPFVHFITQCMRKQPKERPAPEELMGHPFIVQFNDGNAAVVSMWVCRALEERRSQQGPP
Procedure, shortened: as §1

MST1R = MST1R (Homo sapiens, UniProt Q04912); details: read-out: % control
Sequence of MST1R (Q04912 25-1400): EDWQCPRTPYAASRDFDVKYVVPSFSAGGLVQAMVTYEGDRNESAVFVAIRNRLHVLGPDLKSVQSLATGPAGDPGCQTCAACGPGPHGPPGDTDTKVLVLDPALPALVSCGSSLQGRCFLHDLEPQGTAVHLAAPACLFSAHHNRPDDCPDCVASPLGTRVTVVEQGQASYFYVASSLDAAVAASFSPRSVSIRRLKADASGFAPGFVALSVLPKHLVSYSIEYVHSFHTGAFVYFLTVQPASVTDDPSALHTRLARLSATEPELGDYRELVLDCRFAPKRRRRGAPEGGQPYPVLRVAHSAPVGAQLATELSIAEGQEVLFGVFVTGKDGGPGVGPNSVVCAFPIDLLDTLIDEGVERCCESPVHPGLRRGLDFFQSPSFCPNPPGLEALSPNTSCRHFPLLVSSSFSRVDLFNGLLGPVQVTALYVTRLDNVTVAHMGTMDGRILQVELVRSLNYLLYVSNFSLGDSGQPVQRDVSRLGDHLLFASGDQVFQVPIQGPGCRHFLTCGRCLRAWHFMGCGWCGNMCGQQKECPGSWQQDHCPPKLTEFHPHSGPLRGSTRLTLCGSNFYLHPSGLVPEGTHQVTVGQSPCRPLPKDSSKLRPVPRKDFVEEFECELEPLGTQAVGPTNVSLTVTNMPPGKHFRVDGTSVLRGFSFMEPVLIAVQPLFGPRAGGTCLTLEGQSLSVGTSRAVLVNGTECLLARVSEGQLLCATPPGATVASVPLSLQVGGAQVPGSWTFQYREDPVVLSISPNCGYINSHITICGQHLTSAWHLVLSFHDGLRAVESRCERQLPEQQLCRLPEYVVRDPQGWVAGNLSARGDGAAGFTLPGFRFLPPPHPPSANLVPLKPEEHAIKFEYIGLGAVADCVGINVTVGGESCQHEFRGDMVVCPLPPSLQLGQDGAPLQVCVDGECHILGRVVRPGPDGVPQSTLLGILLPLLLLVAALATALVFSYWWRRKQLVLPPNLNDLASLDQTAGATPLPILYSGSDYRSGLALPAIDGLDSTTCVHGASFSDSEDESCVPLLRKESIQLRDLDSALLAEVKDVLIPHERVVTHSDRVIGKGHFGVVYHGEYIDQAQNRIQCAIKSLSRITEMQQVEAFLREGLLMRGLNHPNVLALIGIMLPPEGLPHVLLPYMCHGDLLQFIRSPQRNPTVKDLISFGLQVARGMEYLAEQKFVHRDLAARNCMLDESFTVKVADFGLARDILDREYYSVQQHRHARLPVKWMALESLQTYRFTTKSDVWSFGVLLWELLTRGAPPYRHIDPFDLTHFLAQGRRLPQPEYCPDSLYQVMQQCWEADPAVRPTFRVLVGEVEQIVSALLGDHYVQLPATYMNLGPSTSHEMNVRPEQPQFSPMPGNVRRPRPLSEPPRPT
Procedure, shortened: as §1

EGFR(S752-I759del) = EGFR(S752-I759del) (Homo sapiens, UniProt P00533, DEL752-759); details: read-out: % control
Sequence of EGFR(S752-I759del) (P00533 with tags, fused parts or gaps DEL752-759): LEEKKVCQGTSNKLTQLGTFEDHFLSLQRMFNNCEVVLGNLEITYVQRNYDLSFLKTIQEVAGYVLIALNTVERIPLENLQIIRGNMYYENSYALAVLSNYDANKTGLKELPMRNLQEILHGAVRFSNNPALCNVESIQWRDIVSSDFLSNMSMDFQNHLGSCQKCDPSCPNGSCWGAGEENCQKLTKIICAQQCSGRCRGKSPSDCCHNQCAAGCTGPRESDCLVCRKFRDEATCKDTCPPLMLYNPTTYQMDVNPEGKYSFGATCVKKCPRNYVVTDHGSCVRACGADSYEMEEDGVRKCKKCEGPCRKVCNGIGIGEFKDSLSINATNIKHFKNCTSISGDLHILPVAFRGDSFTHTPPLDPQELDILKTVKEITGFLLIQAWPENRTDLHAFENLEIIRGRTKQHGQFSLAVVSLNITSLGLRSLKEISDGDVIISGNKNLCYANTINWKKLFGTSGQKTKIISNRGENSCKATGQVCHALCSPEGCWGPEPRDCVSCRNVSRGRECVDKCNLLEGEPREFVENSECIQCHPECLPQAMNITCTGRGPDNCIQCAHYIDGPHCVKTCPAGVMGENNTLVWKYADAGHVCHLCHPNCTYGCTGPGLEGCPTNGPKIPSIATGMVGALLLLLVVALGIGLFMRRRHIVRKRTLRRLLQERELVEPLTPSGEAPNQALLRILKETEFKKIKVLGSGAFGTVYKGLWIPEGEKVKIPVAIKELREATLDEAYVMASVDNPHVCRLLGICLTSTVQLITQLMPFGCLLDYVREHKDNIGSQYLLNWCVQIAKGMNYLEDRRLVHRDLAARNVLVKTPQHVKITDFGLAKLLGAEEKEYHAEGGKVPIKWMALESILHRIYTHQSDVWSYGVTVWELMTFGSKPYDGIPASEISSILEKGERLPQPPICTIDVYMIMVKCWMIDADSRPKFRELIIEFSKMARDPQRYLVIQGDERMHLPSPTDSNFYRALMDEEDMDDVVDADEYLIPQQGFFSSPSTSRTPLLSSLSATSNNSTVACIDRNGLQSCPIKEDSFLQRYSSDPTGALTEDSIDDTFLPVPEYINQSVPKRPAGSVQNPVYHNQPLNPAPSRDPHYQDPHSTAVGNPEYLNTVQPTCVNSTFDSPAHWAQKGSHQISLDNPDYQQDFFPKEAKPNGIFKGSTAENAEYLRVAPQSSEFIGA
Procedure, shortened: as §1

CASK = target: T3, CASK (Homo sapiens, UniProt O14936); details: read-out: % control
T3 sequence (O14936 1-926): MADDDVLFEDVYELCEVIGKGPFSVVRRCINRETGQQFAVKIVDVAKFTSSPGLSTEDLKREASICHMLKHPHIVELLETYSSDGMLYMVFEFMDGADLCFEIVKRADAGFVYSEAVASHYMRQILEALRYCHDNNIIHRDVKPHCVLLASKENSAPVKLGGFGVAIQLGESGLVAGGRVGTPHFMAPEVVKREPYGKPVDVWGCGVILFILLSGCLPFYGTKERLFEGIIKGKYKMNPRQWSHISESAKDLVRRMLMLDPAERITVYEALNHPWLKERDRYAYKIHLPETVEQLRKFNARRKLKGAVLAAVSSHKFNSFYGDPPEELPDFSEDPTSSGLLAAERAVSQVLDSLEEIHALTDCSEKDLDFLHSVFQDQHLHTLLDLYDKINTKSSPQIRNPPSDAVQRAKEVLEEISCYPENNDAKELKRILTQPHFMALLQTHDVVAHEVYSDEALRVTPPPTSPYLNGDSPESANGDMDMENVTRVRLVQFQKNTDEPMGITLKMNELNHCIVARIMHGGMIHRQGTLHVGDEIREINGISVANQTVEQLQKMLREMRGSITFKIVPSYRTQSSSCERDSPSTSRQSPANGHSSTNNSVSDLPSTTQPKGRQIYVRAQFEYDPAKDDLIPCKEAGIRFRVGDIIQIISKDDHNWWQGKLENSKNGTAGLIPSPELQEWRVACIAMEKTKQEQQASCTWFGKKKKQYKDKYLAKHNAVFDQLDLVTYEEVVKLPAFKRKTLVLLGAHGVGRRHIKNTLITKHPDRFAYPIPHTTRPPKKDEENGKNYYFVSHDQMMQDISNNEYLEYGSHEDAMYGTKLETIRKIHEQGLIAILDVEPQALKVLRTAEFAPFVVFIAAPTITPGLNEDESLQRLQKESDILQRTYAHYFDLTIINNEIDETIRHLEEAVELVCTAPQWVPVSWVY
Procedure, shortened: as §1

p38-beta = p38-beta (Homo sapiens, UniProt Q15759); details: read-out: % control
Procedure, shortened: as §1

CIT = CIT (Homo sapiens, UniProt O14578); details: read-out: % control
Procedure, shortened: as §1

Sequence of VEGFR2 (P35968 20-1356): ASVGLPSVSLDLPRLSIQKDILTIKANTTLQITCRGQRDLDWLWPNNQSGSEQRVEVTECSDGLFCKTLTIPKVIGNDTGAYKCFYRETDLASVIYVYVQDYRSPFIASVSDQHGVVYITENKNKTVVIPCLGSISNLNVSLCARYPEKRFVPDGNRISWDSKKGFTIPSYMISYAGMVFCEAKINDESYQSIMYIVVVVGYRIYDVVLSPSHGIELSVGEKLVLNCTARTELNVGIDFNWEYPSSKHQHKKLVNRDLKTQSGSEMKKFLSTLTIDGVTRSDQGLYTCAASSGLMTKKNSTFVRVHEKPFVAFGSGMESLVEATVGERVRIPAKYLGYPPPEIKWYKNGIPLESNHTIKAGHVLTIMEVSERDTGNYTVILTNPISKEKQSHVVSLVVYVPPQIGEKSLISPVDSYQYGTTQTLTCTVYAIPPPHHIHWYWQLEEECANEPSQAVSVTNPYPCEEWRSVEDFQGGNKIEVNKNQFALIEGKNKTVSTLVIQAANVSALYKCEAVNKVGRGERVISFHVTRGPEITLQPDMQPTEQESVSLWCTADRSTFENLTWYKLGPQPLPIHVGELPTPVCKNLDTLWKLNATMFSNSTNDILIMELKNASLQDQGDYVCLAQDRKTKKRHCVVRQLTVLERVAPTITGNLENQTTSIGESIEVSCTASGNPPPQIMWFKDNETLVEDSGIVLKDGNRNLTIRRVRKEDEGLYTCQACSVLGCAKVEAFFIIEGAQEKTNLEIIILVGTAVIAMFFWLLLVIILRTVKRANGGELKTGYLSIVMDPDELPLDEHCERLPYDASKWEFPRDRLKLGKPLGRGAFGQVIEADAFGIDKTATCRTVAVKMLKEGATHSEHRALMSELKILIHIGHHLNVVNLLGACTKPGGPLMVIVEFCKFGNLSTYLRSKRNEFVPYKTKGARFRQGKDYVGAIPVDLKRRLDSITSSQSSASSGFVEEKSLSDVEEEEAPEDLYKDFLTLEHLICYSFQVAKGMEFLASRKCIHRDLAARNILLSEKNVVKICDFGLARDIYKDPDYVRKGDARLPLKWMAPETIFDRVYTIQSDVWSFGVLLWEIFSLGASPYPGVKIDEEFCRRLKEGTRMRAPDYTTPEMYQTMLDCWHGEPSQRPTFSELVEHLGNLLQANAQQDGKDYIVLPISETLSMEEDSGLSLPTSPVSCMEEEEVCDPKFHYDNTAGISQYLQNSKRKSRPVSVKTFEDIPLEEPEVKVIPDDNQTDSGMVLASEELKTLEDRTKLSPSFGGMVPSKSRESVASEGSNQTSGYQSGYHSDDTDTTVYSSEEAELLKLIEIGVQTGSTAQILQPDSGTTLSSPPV

Compound: CNc1c(-c2cnn([C@H]3CCN(C(C)=O)C[C@@H]3F)c2)cnc2[nH]cc(Cl)c12 [Compound 77, 1-((3S,4S)-4-(4-(3-chloro-4-(methylamino)-1H-pyrrolo[2,3-b]pyridin-5-yl)-1H-pyrazol-1-yl)-3-fluoropiperidin-1-yl)ethan-1-one]
- remaining binding at 1 µM (VEGFR2): 2.8%
- remaining binding at 1 µM (MAP4K2): 20%
- remaining binding at 1 µM (MLK2): 62%
- remaining binding at 1 µM (MEK5): 3.2%
- remaining binding at 1 µM (MST1R): 100%
- remaining binding at 1 µM (EGFR(S752-I759del)): 100%
- remaining binding at 1 µM (CASK): 95%
- remaining binding at 1 µM (p38-beta): 95%
- remaining binding at 1 µM (CIT): 6.8%

Compound: CNc1c(-c2ccc(C(=O)N3CCC(N4CCOCC4)CC3)cc2)cnc2[nH]cc(Cl)c12 [Compound 96, (4-(3-chloro-4-(methylamino)-1H-pyrrolo[2,3-b]pyridin-5-yl)phenyl)(4-morpholinopiperidin-1-yl)methanone]
- remaining binding at 1 µM (VEGFR2): 4.2%
- remaining binding at 1 µM (MAP4K2): 1.1%
- remaining binding at 1 µM (MLK2): 39%
- remaining binding at 1 µM (MEK5): 7.3%
- remaining binding at 1 µM (MST1R): 88%
- remaining binding at 1 µM (EGFR(S752-I759del)): 98%
- remaining binding at 1 µM (CASK): 94%
- remaining binding at 1 µM (p38-beta): 58%
- remaining binding at 1 µM (CIT): 11%

Compound: O=C(c1ccc(-c2cnc3[nH]cc(Cl)c3c2NC2CCCC2)cc1)N1CCC(N2CCOCC2)CC1 [Compound 101, (4-(3-chloro-4-(cyclopentylamino)-1H-pyrrolo[2,3-b]pyridin-5-yl)phenyl)(4-morpholinopiperidin-1-yl)methanone]
- remaining binding at 1 µM (VEGFR2): 33%
- remaining binding at 1 µM (MAP4K2): 20%
- remaining binding at 1 µM (MLK2): 69%
- remaining binding at 1 µM (MEK5): 100%
- remaining binding at 1 µM (MST1R): 77%
- remaining binding at 1 µM (EGFR(S752-I759del)): 100%
- remaining binding at 1 µM (CASK): 100%
- remaining binding at 1 µM (p38-beta): 92%
- remaining binding at 1 µM (CIT): 21%
